Square brackets hold non-standard residues; d marks the D form. Peptide text beside a SMILES is read from it. * marks the point of attachment. PEG10 = NCCOCCOCCOCCOCCOCCOCCOCCOCCOCCOCCC(=O)O; Palmitoyl = CCCCCCCCCCCCCCCC(=O)*
Columns and labels:
[1] = Resuspension of purified PA in water; format: physicochemical; settings: purified molecule in water
Description: Solubilization and Heat Treatment: PA powders were resuspended to 10 mM in water for experiments at pH 7, in 10 mM hydrochloric acid for pH 2 and 10 mM sodium hydroxide for pH 12. After resuspension, 1 M sodium hydroxide or 1 M hydrogen chloride were added to achieve the desired pH. To co-assemble PA molecules, PA solutions were mixed volumetrically, bath sonicated for 1 hour and then left on the bench to age for at least 2 hours. A solution of 150 mM NaCl was added to all samples to achieve a final NaCl concentration of 30 mM. All samples were heat treated at 80° C. for 30 minutes followed by gradual cooling by 1° C. per minute to 25° C.
To produce PA filaments without ionic charge, a short PEG chain was substituted for the ionizable amino acids typically included in PA molecules to maintain solubility of the PA in an aqueous environment. To form an uncharged PA filament, the sequence N-palmitoyl-VVAA was chosen as the aliphatic tail and hydrogen bonding peptide. As the hydrophilic domain, a 10-mer PEG amino acid was selected, which was hypothesized to be long enough to solubilize the PA while limiting steric repulsion among assembled molecules (PA1, FIG. 2A). The PA was synthesized by coupling the PEG amino acid to a rink-amide resin and completing the peptide using standard Fmoc solid phase peptide synthesis, leaving an uncharged amide group after cleavage from the resin. […]

[2] = Cytotoxicity (calcein / ethidium homodimer live-dead staining); format: cell-based; settings: human, nHLF cultures, 36 hours culture; for viability at 36 h: normal human lung fibroblasts (nHLF), up to 100 μM PA, read-out: cells staining positive for calcein (percent viable cells)
Description: Cytotoxicity: Normal Human Lung Fibroblasts were obtained from Lonza and maintained in growth medium consisting of DMEM with 10% fetal bovine serum (FBS) and 1% penicillin/streptomycin. Cells (passage 5) were tryspinized and resuspended in media containing 2% FBS and 150 μl of the cell suspension was added to each well of a 96 well microplate for a total of 2,500 cells per well. After 2 hours attachment, 50 μl PA solutions diluted in PBS to 4 μM, 20 μM, 100 μM, or 400 μM were added to each well. After 36 hours culture, the media was removed and replaced with a solution of 2 μM calcein and 4 μM ethidium homodimer in PBS. After 30 minutes, cells were imaged using a Cytation 3 microplate reader. Live and Dead cells were counted using the MATLAB image Processing Toolbox to determine viability.

[3] = system: Human mesenchymal stem cells; test: Alkaline phosphatase (ALP) activity, osteogenic differentiation; format: cell-based; settings: human MSCs, one week
Description: Alkaline Phosphatase Activity: Human mesenchymal stem cells were obtained from Lonza and maintained in Mesenchymal Stem Cell Growth Media (Lonza). Cells were used for experiments prior to passage 6. Cells were trypsinized and resuspended in growth media containing high glucose DMEM supplemented with 10% FBS and 1% penicillin/streptomycin and 50 mg/L sodium ascorbate. 500 μl of the cell suspension was placed in each well of a 24 well plate and incubated for 24 hours. Media was removed and replaced with 540 μl of growth media or osteogenic media containing low glucose DMEM supplemented with 10% FBS, 50 mg/L sodium ascorbate 10 mM 3-glycerophosphate, and 100 nM dexamethasone. 60 μl of a 10 times concentrated PA solution in PBS was then added to each well. Every 3-4 days, media was replaced by removing 300 μl media and adding 270 μl growth media or osteogenic media and 30 μl of the 10 times concentrated PA solution in PBS. Alkaline phosphatase (ALP) activity was determined using the SensoLyte pNPP ALP Assay Kit (Anaspec, Fremont, CA) according to the manufacturer's instructions. […] The supernatant was mixed with the assay's detection buffer in a microplate and the optical absorbance was read after a four-hour incubation using a Cytation 3 microplate reader. […]

[4] = Zeta potential of PA solutions; format: physicochemical; settings: for surface charge (zeta-potential), sign: neutral pH
Description: Zeta potential: Heat-treated PA solutions were diluted 20 times in 30 mM NaCl with 10 mM HCl, 30 mM NaCl, or 30 mM NaCl with 10 mM NaOH for pH 2, pH 7, and pH 12 respectively. For each PA, three separate samples were prepared at each pH. Samples were loaded in a disposable folded capillary cell and zeta-potential was measured at 25° C. using a Zetasizer Nano ZS (Malvern Instruments, Malvern, UK). The average of the three measurements for each sample was plotted.

[5] = Nile red assay of aggregation; format: physicochemical; settings: buffers of 0 mM, 15 mM and 150 mM NaCl
Description: Nile Red Assay: Following heat treatment, PA solutions were serially diluted in water (0 mM NaCl), or a buffer of 15 mM NaCl, or 150 mM NaCl. A solution of 100 μM Nile red was added to the PA solutions to one thousandth the total volume and incubated for 1 hour. The fluorescence spectrum was read from 600 nm to 700 nm using a BioTek Cytation 3 microplate reader using 560 nm excitation and the fluorescence shift was determined by subtracting the maximum […] wavelength for each sample from that of the dye solution diluted in each buffer alone.

Compound	viability at 36 h [2] [%]	surface charge (zeta-potential), sign [4]	aggregation as indicated by redshift in Nile red fluorescence, dependence on ionic strength [5]	also measured
CCCCCCCCCCCCCCCC(=O)N[C@H](C(=O)N[C@H](C(=O)N[C@@H](C)C(=O)N[C@@H](C)C(=O)NCCOCCOCCOCCOCCOCCOCCOCCOCCOCCOCCC(N)=O)C(C)C)C(C)C [PA1] (Palmitoyl-VVAA[PEG10]-NH2)	> 85	–	–	solubility in water (resuspension) [1]: readily resuspended in water
CCCCCCCCCCCCCCCC(=O)N[C@H](C(=O)N[C@H](C(=O)N[C@@H](C)C(=O)N[C@@H](C)C(=O)N[C@@H](CCC(=O)O)C(=O)N[C@@H](CCC(=O)O)C(N)=O)C(C)C)C(C)C [PA2] (Palmitoyl-VVAAEE-NH2)	> 85	negatively	depended on ionic strength of the buffer	ALP activity (osteogenic differentiation) in growth media ([3]; growth media, various PA concentrations): increased with increasing PA2 concentration; ALP activity (osteogenic differentiation) in osteogenic media ([3]; osteogenic media with dexamethasone and β-glycerophosphate): did not affect differentiation
CCCCCCCCCCCCCCCC(=O)N[C@H](C(=O)N[C@H](C(=O)N[C@@H](C)C(=O)N[C@@H](C)C(=O)N[C@@H](CCCCN)C(=O)N[C@@H](CCCCN)C(N)=O)C(C)C)C(C)C [PA3] (Palmitoyl-VVAAKK-NH2)	–	positively charged	less dependent on ionic strength than PA2	EC50 at 36 h ([2]; Normal Human Lung Fibroblasts (nHLF)): 25 ± 4 µM
N-palmitoyl-VVAAEE-PEG10 [PA4]	–	–	–	Zeta-potential (surface charge) ([4]; pH 2): ~0 mV
N-palmitoyl-VVAAKK-PEGio [PA5]	–	–	–	Zeta-potential (surface charge) ([4]; pH 12): ~0 mV

Source: patent publication US11998589B2, “PEGylated peptide amphiphile nanofibers and methods of use” (Northwestern University, priority 2020, dated 2024)
